Series [1] has as its system DGGCs. Put plainly: Ca2+ imaging with calcium green-1 in DGGCs of hippocampal slices, whole-cell mode. The format is cell-based, mice. To be noted: for peak calcium green-1 fluorescence increase: M1R stimulation. The method, then: (§1) Hippocampal Slice Preparation. […] Hippocampal slices were maintained in oxygenated ACSF at 30° C. for 60 min and experiments were performed at 25° C.
Ca2^+ Imaging. Concurrent with patch-clamp electrophysiology, neurons in slices were also imaged (Nikon FN-1, 40× water-immersion objective) via the fluorescent Ca^2+-reporter dye calcium green-1. As a hexapotassium salt, the dye (10 μm) was added to the intracellular patch pipette solution and neurons were patched under whole-cell clamp, as described above. Cells were loaded for 10 min before image acquisition. Fluorescence intensity was obtained using a SOLA Light Engine illumination source (Lumencor) with an output of 3.5 W through a 3-mm-diameter liquid light guide through a Nikon ET-GFP filter. Nikon Elements software was used for image acquisition through a QIClick CCD camera (QImaging). Images were acquired with an exposure time of 200 ms every 2 min using a single-channel, 12-bit rate and no binning. The shutter was closed between each acquisition. For each cell, the corrected total cell fluorescence was measured as the integrated density intensity—(cell area*mean background emission). Ca^2+ signals were measured as the change in fluorescence relative to the baseline fluorescence (ΔF/F0). Averages of four images were thresholded at 10%, masked using a highly averaged image of the cell, and encoded with a pseudocolor look-up table. Group cell fluorescence data were averaged in comparison with normalized intensity at each time point.

The subject of series [2] is DGGCs. Put plainly: Patch-clamp / current-clamp recordings of DGGCs in hippocampal slices (action potentials, AHP, IM amplitude). It is filed as cell-based, mice. On the procedure:
as §1

In series [3] the test system is DGGCs. Kind of series: GCaMP6f brain slice Ca2+ imaging of DGGCs after sham or CCI-TBI. The format is cell-based, mice. To be noted: for Ca2+ influx events per neuron: 0.3 mM ACh 5 min; for duration of Ca2+ influx / peak amplitude of Ca2+ influx: ACh. An excerpt:
Neuromodulation of TRPC generates robust Ca2+ influx and facilitates neuronal hyperexcitability. […] To assess the post-injury effect of TRPC channel upregulation on neurons, we used Ca2+ imaging in brain slice to measure excitability as a product of intracellular Ca2+ gating by TRPC1/4/5 channels (FIG. 4). […] Transgenic mice with the GCaMP6f transgene were used to detect changes in cellular Ca2+-activated fluorescence. We hypothesized that DGGC activity increases due to muscarinic stimulation with ACh or direct activation of TRPC4-containing channels with EA. Sensitivity was tested by bath perfusion of ACh or EA to the slice for 5 minutes during Ca2+ imaging to quantify peak amplitude of GCaMP6f fluorescence per cell, duration of Ca2+ influx, and the field-frequency of events (FIG. 4).
Brain slice Ca2+ imaging. Transverse slices (300 μm) of hippocampus were cut with a vibratome (Thermo Scientific Microm HM650V) from Cre-CamK2+/GCamp6f+/− mice. […] Hippocampal slices were maintained in oxygenated ACSF at 30° C. for 60 min, and experiments performed at 28° C. […] Neurons were visually identified with a Nikon FN-1 microscope equipped with a 40× water-immersion objective and infrared differential interference contrast. GCaMP6f fluorescence was obtained using a SOLA Light Engine Illumination source (Lumecor) with an output of 3.5W through a 3 mm diameter liquid light guide through a Nikon ET-GFP filter. Nikon Elements software was used for image acquisition through a QIClick CCD camera (Qlmaging) with a Uniblitz Model VMM-D 1 shutter driver. Baseline time series of the DG granule layer were acquired in the presence of bath solution perfusion for 2 min. […] Images were acquired in time series with an exposure time of 200 ms at 2-10 fps at 12-bit rate and no binning. Time-series image stacks were processed with ImageJ. Images were background subtracted using the mean of the 5% lowest pixel values. Ca2+ signal events were quantified for each cell as change in fluorescence divided by the baseline fluorescence (ΔF/FO) after background subtraction. ROI signals were detrended before quantification to account for drift due to gradual photobleaching of the background.

A further series has as its system TRPC4/5 channels. To be noted: description from literature; cited from earlier work.
The next series concerns other TRPC channels. To be noted: description; cited from earlier work.
The test system of series [4] is seizure susceptibility. Kind of series: Single subconvulsant PTZ challenge 7 days after CCI-TBI. The format is in vivo, mice. Particulars: PTZ 50 mg/kg single dose 7 days after TBI, n=14. An excerpt:
TBI facilitates TRPC-dependent seizure susceptibility.
Controlled cortical impact traumatic brain injury. […] Apnea episodes lasted between 10-60 sec after impact.
Seizure susceptibility assays. Pentylenetetrazol kindling model.

Series [5] concerns seizure susceptibility. Put plainly: PTZ kindling after sham or CCI-TBI. On the procedure:
The fact that only a portion of TBI cases become susceptible to epileptic seizures is a yet unanswered phenomenon in both preclinical and clinical studies. Therefore, we investigated seizure susceptibility within the CCI-TBI model to gain a greater understanding as to the etiology of hyperexcitability spread occurring post-injury. […] In our seizure susceptibility paradigm, 1 or 7 days after experimental procedure, mice were challenged with a subconvulsant dose of PTZ (35 mg/kg s.c.) once-daily to elicit kindling epileptogenesis (FIG. 6A). The progression of motor seizure behavior was observed and timed by direct observation linked to EEG activity (FIG. 6B).
We wished to understand if the TRPC channel upregulation after TBI could be targeted to impede epileptogenic activity. […] Seizure susceptibility was standardized according to the latency to forelimb clonus lasting greater than 5 sec.
Controlled cortical impact traumatic brain injury. The controlled cortical impact (CCI) traumatic brain injury (TBI) model was applied, with a closed skull impact approach. The CCI model causes TBI, but the skull remains intact with minimal hematoma. This type of brain injury model most closely simulates the TBI experienced during blunt-head injuries from vehicular accidents or falls. Mice were anesthetized with isoflurane (3% induction, 1% maintenance) in 100% O2. Body temperature of 37° C. was maintained using a temperature-controlled heated surgical table. The skull was fixed with ear-bars into a stereotaxic frame. A small midline incision was made on the scalp using aseptic surgical techniques. Impact was delivered by cylindrical probe of 5 mm diameter with an Impact One neurotrauma impactor (Leica Biosystems). A calibrated impact was delivered at 4.5 m/sec to a depth of 1 mm and 0.5 sec dwell time to the right parietal cortex (−1.8 mm ML, +2.0 mm AP, −1.0 mm DV). […] The scalp was then sutured closed and mice were placed in a warming recirculation unit and monitored until fully awake and moving freely. […] For consistency, the left hemisphere of both sham and TBI mice is designated as “contralateral” brain, and the right hemisphere is referred to as “ipsilateral”, despite no impact injury occurring in sham mice.
In vivo electroencephalograms. To determine seizure frequency and record brain susceptibility to seizures, mice were implanted with electroencephalogram (EEG) electrodes 24 hr after sham or TBI. A three-channel tethered EEG system was used. The electrode pedestal (P1 Technologies) was secured to the skull with three anchored dental screws and connected to a preamplifier with gain of 25. The three leads were inserted over the left frontal cortex, left parietal cortex, and depth electrode lead into the hippocampus. The Stellate Harmonie acquisition hardware and software were used to collect coincident video and EEG activity. EEGs were inspected for presence of epileptiform spikes and seizures.
Seizure susceptibility assays. Pentylenetetrazol kindling model. Seizure susceptibility was tested with the GABAA receptor antagonist pentylenetetrazol (PTZ) for progression of motor seizure activity. Mice were injected with PTZ (35 mg/kg, s.c.) once per day and scored for motor behavioral seizures.

The next series concerns TRPC1/4/5 channels. To be noted: Rubaiy et al., 2017; cited from earlier work.
Where [6] appears, read: TRPC4/5 channels blocked, control or plus 77-LH-28-1 3 μM.
Where [7] appears, read: PTZ daily from 1 day post-TBI, TBI.
The mark [8] stands for this setting: PTZ daily from 1 day post-procedure, sham.
Setting [9] is: PTZ daily from 7 days after TBI, TBI.
Where [10] appears, read: PTZ daily from 7 days after procedure, sham.
The mark [11] stands for this setting: IP3 receptor blockade, xestospongin C 10 μm.

The structures appear in SMILES notation.

For the compound `CCCCC1CCN(CCCN2C(=O)CCc3ccccc32)CC1` [77-LH-28-1], the “peak calcium green-1 fluorescence increase” value came out at 2.91±0.41 fold in the series with DGGCs [1] (77-LH-28-1 3 μm) and 4.27±0.95 fold in the series on DGGCs [1] (77-LH-28-1 10 μm). Further, the “enhancement of IM amplitude” value in the series with DGGCs [2] (77-LH-28-1 3 μm with TRPC4/5 channels blocked) is on record as 1.83 ±0.14 fold; in the series with DGGCs [2] (M1R stimulation in the absence of TRPC4/5 channel blockers), 1.92±0.10 fold. For the same compound, the “action potential firing rate” value in the series on DGGCs [2] (77-LH-28-1 3 μm, no TRPC4/5 blocker) is reported as “significantly increased”. Moreover, the action potential threshold in the series with DGGCs [2] (M084 10 μm + 77-LH-28-1 3 μm, n=8 cells) is recorded as −46.1±1.5 mV. Besides, the AHP amplitude in the series on DGGCs [2] (setting [6]) is reported as 13.6 ± 0.9 mV. Moreover, the AHP area in the series on DGGCs [2] (setting [6]) is 264.8 ± 21.5 ms* mV. The AHP decay in the series with DGGCs [2] (setting [6]) amounted to 17.1 ± 0.8 ms.
Consider `CC(=O)OCC[N+](C)(C)C` [ACh, acetylcholine], for which the “Ca2+ influx events per neuron” value in the series with DGGCs [3] (contralateral TBI) was determined as 2.6±0.2 events/neuron; in the series on DGGCs [3] (ipsilateral TBI), 4.3±0.2 events/neuron; in the series with DGGCs [3] (sham control tissue) it was 1.8±0.3 events/neuron. In addition, the figures for the “duration of Ca2+ influx” value with DGGCs [3] (contralateral DGGCs) and in the series with DGGCs [3] (ipsilateral DGGCs) were 6.12 ± 0.19 s and 8.51 ± 0.20 s, respectively. Moreover, the “peak amplitude of Ca2+ influx” value is listed as 1.70±0.12 ΔF/F in the series with DGGCs [3] (contralateral DGGCs) and 4.31±0.58 ΔF/F with DGGCs [3] (ipsilateral TBI DGGCs).
On to `Cc1cc(N2CCCCC2)nc2ccccc12` [ML204, 4-Methyl-2-(1-piperidinyl)quinolone], for which the “maximum calcium-green 1 emission on muscarinic stimulation” value in the series with DGGCs [1] (M084 and ML204 together, 10 μm) is given as 1.61±0.21 fold. In addition, the “effect on TRPC4/5 channels” value in the series on TRPC4/5 channels is “selectively inhibit”. In the series with other TRPC channels, the “blockage of other TRPC channels” value is “no appreciable blockage”.
With `C1CCc2nnnn2CC1` [PTZ, pentylenetetrazol], the “mice acquiring myoclonic jerks” value in the series with seizure susceptibility [4] was 100%. Besides, the “mice with forelimb clonus seizures” value in the series with seizure susceptibility [4] worked out at 86%. Further, the “latency to myoclonic jerks” value amounted to 4.4 ± 0.6 days in the series with seizure susceptibility [5] (PTZ 35 mg/kg s.c. daily from 1 day post-TBI, TBI); 9.5 ± 0.6 days in the series on seizure susceptibility [5] (PTZ 35 mg/kg s.c. daily from 1 day post-procedure, sham); 3.6 ± 0.7 days in the series on seizure susceptibility [5] (setting [9]); 9.8 ± 0.4 days with seizure susceptibility [5] (setting [10]). Moreover, the “latency to forelimb clonus” value turned out to be 5.6 ± 0.7 days with seizure susceptibility [5] (setting [7]), 11.3 ± 0.7 days in the series with seizure susceptibility [5] (setting [8]), 4.3 ± 0.8 days in the series with seizure susceptibility [5] (setting [9]) and 12.0 ± 0.6 days in the series on seizure susceptibility [5] (setting [10]). In addition, the “latency to tonic-clonic seizure” value in the series with seizure susceptibility [5] (setting [7]) was determined as 7.9 ± 0.7 days; in the series with seizure susceptibility [5] (setting [8]) it was 12.5 ± 0.8 days; with seizure susceptibility [5] (setting [9]), 5.6 ± 1.2 days; with seizure susceptibility [5] (setting [10]), 13.1 ± 0.6 days. The “mice with lethal seizures on second tonic-clonic occurrence” value in the series on seizure susceptibility [5] (PTZ kindling from 1 day post-TBI, TBI group) was “five out of eight”.
As to `Cn1c(=O)n(CCCO)c(=O)c2c1nc(Oc1cccc(OC(F)(F)F)c1)n2Cc1ccc(Cl)cc1` [Pico145], the “potency on TRPC1/4/5 channels” value in the series with TRPC1/4/5 channels is “picomolar potency”.
`CCCCCCCCCCCCCCCCCCOCC(COP(=O)([O-])OCC[N+](C)(C)C)OC` (stereo not drawn) [edelfosine]: the “maximum dye emission over that before agonist” value in the series on DGGCs [1] (slices preincubated with edelfosine 10 μm, then 77-LH-28-1) is given as 1.15±0.08 fold.
In the case of `C1CCC[C@H]2CCCN3CC[C@@H](CCCCCC[C@@H]4CCCN5CC[C@@H](CC1)O[C@@H]45)O[C@@H]23` [xestospongin C], the “rises in [Ca2+]i on mAChR stimulation” value in the series on DGGCs [1] (setting [11]) is given as “substantial rises”. Further, the “action potential firing frequency on mAChR stimulation” value in the series with DGGCs [2] (setting [11]) was “increased action potential firing frequency”. In addition, in the series with DGGCs [2] (xestospongin C 10 μm in the pipette), the “M1R-mediated enhancement of IM” value was determined as 1.67±0.14 fold.
